Test results as given in patent publication US8008074B2, “Compositions and methods for improving bone mass through modulation of receptors of PTH and fragments thereof” (The UAB Research Foundation, priority 2006, dated 2011).

Experiments:
β-catenin in osteoblasts [1] = test: β-catenin immunostaining of femur and tibia after single PTH injection in rats; type: in vivo, rat
Description: (§1) Immunohistochemical staining of representative sections with antibody against β-catenin at 10× objective and 40× objective counterstained with hematoxylin from either primary spongliosa subjacent to the epiphyseal growth plates or Spongiosa subjacent to diaphyseal hematopoietic bone marrow of different time points after PTH single injection in rats. […] Each value is the mean±SEM of determinations in three independent slides of each animal and three animals of each group. Panels B and C show graphs of the expression of MPK1 mRNA and the ratio of RANKL/OPG as quantified by real-time PCR in cavaria tissue from the same animals. Panel D—Immunohistochemical β-catenin staining of representative sections were counterstained with hematoxylin from metaphyseal area of distal femurs of mice at six weeks of age. (i) vehicle control daily injection for 28 days; (ii) hPTH (1-34) 100 ng/g. b.w daily injection for 28 days; (iii) vehicle control continuous infusion with an osmotic pump; and (iv) hPTH (1-34) continuous infusion at 500 ng/h with an osmotic pump. Panel D is a graph showing the numbers of β-catenin-positive osteoblasts as a percent of total osteoblasts per field that were determined. Each value is the mean±SEM of determinations in three independent slides of each animal and three animals of each group.
β-Catenin, activated by either Wnt or TGF signaling, stimulates proliferation of osteoprogenitors and bone formation. […] Therefore, the dynamics of β-catenin levels were determined at various time points after a single dose injection of PTH (1-34) in seven-month-old rats. Sections of femur and tibia were immunostained for HE, trichrome, and β-catenin. The first signs of β-catenin expression in osteoblasts appeared at 2 hours after PTH injection, reached a peak at 8 hours, and decreased at 24 hours. […] Specifically, 99.76% of osteoblasts at primary spongliosa subjacent to the epiphyseal growth plates were β-catenin positive, and 89.91% at spongiosa subjacent to diaphyseal hematopoietic bone marrow were β-catenin positive (FIG. 7A).
To further examine whether LRP5/6 mediates PTH-elevated β-catenin levels in vivo, trabecular bone sections were immunostained with the antibody against phosphorylated PPPSP motif. Formalin-fixed tissue sections of 5 μm thickness were deparaffinized in xylene and rehydrated in graded alcohols. Antigen retrieval was achieved by incubating tissue sections in boiling 10 mmol/L citrate buffer (pH 6.0) for 5 minutes in a microwave oven. All sections were then incubated with hydrogen peroxide for 5 minutes. Subsequently, sections were incubated with the primary antibodies against β-catenin or LRP6 1490 for 1 hour at room temperature. After rinsing the primary antibody in T-PBS, antibody detection was accomplished using the Super Sensitive biotin-streptavidin horseradish peroxidase detection kit (Biogenex, San Ramon, Calif.). The diaminobenzidine tetrachloride Super Sensitive substrate kit (Biogenex, San Ramon, Calif.) was used to visualize the antibody-antigen complex. The sections were then counterstained with hematoxylin. Appropriate negative controls, consisting of tissue sections of each case processed without the addition of primary antibody, were prepared along with positive multitissue control sections. Only those cases with greater than 10% immunohistochemical stains were considered as positive. Assessment of the immunohistochemical staining was performed independently by two pathologists. […]

LRP6/Axin binding = test: Axin-LRP6 binding immunoprecipitation assay; type: cell-based; details: HEK 293 cells cotransfected with LRP6, Axin and GSK3β; ligand for 1 hour
[2] = Bone formation in mice, daily injection or continuous infusion for 28 days; type: in vivo, mouse
Description: as §1
(§2) The role of β-catenin in PTH-induced bone formation was then examined. PTH stimulates bone formation when injected daily, i.e. intermittent injection, but causes severe bone loss when infusion continuously. Mice were injected either daily or continuously by infusion with an osmotic pump for 28 days. […] Similar results were obtained in double labeling.

β-catenin in osteoblasts [3] = test: β-catenin immunostaining of trabecular bone in mice, 28 days PTH; type: in vivo, mouse; details: for percentage of β-catenin positive osteoblasts: 28 days
Description: as §1, §2

[4] = tested on: TGF-β-induced transcription activity; test: Smad binding response luciferase reporter (SBE-luc) in 293 cells; type: cell-based; details: TGF-β 2 ng/ml, 50 nM
Description: A Smad binding response luciferase reporter (SBE-luc) was transfected into 293 cells. TGF-β (2 ng/ml) was added in combination with different doses of PTH (1-34) or cPTH (39-84). Twenty-four hours after transfection, the cells were lysed and the luciferase signal was detected. Luciferase values shown in the figures are representative of transfection experiments performed in triplicate in at least three independent experiments. The relative increased fold of the luciferase activity stimulated by TGF-β in each cell line was calculated.
A Smad binding response luciferase reporter (SBE-luc) was introduced into the multi-cloning site of pcDNA3 (Invitrogen), and the resulting vector was transfected into 293 cells using Lipofectamine Plus reagent (Invitrogen, Cat. No. 10964-013). TGF-β (2 ng/ml) was added in combination with different doses of PTH (1-34) (50 nM) or cPTH (39-84) (50 nM). […] Forty-two hours after transfection, the cells were lysed, and the luciferase signal was detected using the Dual Luciferase assay kit (Promega) according to the manufacturer's instructions.
Luciferase values shown in the figures are representative of transfection experiments performed in triplicate in at least three independent experiments. The relative increased fold of the luciferase activity stimulated by TGF-β in each cell line was calculated.

Axin = Axin protein levels; type: cell-based; details: cells overexpressing LRP6
Description: Binding of Axin to phosphorylated LRP6 leads to rapid degradation. Then inhibition of Axin/LRP6 binding should […] degradation of Axin. Indeed, Axin degradation is reduced by both inhibitors (data not shown). […] PKA and PKC also were examined to determine whether they regulate PTH-induced PTH1R/LRP6 complex formation. […] Apparently, the receptor complex formation is independent of activation of PKA and PKC. Instead, it seems that activation of G protein-mediated PKA and PKC signaling is in parallel with the recruitment of LRP5/6 in PTH signaling. PKA and PKC activity is required for LRP5/6 phosphorylation and Axin/LRP6 binding.
Wnts induce binding of Axin to phosphorylated LRP6, and the membrane-bound Axin undergoes rapid protein dephosphorylation and degradation, which eventually leads to β-catenin stabilization Willert et al., 1999; Yamamoto et al., 1999).

[5] = tested on: Wnt responsive luciferase reporter (TCF4-Luc); test: TCF4-Luc luciferase reporter assay in UMR 106 cells; type: cell-based
PTH1R-TβRII interaction = target: T1, PTH1R-TβRII interaction (Homo sapiens, UniProt P37173+Q03431); test: YFP protein-fragment complementation assay, TβRII-YFP1 and PTH1R-YFP2; type: cell-based; details: both constructs expressed; plasma membrane
T1 construct: expressed in transfected cells
Description: A yellow fluorescent protein (YFP)-based protein-fragment complementation assay (PCA) was employed (Remy et al., 2004). YFP1 fragment was fused into the C-terminal of TβRII. YFP2 fragment was fused into the C-terminal of PTH1R. The PCA strategy was to facilitate visualization of the PTH1R-TβRII interaction through reconstituted YFP in living cells when the interaction brings the complementary fragments of the YFP into close proximity.
The PTH^TMR was then employed in the PCA experiment. […] Almost all the reconstituted YFP associated with PTH^TMR. The observation was further confirmed by the immunostaining of TβRII and PTH1R in the PTH^TMR-treated cells. TβRII, PTH1R, and PTH ligand predominantly colocalize into the same cytoplasmic vesicles (data not shown).

TGFβ/Smad signaling = TGFβ/Smad signaling after PTH pretreatment; type: cell-based; details: C2C12 cells; TGFβ stimulation
Description: Panel B is a graph showing the decrease in activity from the SBE-luciferase reporter in the presence of PTH and PTH1R.
It has been reported that TGFβ-induced endocytosis of TGFβ/TβRII is mediated by Sara endosome. The response of TβRII to PTH was analyzed to determine whether it is the same as to TGFβ. […] The observation was confirmed by TGFβ-induced interaction between Smad2 and Smad4.

[6] = rats, 8 hours after single injection of PTH (1-34)
[7] = seven-month-old rats, single dose injection of PTH (1-34)

T1 sequence (Q03431 27-593): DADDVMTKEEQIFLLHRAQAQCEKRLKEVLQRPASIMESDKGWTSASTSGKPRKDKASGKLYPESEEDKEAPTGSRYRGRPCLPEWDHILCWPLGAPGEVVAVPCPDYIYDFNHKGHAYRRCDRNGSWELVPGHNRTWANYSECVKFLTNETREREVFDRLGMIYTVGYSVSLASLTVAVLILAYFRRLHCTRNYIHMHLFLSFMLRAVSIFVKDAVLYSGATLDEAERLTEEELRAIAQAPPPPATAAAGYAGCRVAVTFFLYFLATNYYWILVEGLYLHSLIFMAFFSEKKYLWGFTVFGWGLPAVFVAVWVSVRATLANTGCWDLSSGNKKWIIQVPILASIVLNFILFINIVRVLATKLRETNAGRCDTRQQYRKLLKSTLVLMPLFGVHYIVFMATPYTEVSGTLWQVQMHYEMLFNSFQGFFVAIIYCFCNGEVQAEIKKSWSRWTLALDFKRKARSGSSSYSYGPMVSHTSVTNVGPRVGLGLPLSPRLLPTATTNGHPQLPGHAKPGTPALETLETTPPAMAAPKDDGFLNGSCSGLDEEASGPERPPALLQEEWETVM
T1 sequence (P37173 23-567): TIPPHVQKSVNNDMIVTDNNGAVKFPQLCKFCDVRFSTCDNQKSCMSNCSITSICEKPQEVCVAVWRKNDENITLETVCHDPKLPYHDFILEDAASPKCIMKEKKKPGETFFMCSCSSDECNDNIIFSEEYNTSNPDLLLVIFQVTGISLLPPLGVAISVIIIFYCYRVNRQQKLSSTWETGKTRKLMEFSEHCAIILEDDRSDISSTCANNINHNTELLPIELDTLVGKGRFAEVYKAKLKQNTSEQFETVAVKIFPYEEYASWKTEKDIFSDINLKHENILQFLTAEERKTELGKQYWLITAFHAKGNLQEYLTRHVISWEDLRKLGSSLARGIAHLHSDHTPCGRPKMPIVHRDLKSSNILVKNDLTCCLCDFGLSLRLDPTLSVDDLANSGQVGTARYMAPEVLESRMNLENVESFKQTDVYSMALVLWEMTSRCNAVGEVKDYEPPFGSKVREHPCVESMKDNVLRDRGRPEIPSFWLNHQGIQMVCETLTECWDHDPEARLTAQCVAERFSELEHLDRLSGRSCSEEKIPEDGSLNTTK

In the case of “PTH (1-34): N-terminal fragment of PTH, amino acids 1-34”, the “β-catenin positive osteoblasts at primary spongliosa subjacent to the epiphyseal growth plates” value (β-catenin in osteoblasts [1]; [6]) was 99.76%, the “β-catenin positive osteoblasts at spongiosa subjacent to diaphyseal hematopoietic bone marrow” value (β-catenin in osteoblasts [1]; [6]) was 89.91% and the “first signs of β-catenin expression in osteoblasts after PTH injection” value (β-catenin in osteoblasts [1]; [7]) was 2 h. For the same substance, the “peak of β-catenin expression in osteoblasts after PTH injection” value (β-catenin in osteoblasts [1]; [7]) was 8 h, the “β-catenin expression in osteoblasts at 24 hours” value (β-catenin in osteoblasts [1]; seven-month-old rats, single dose injection of PTH (1-34), 24 hours) was “decreased” and the Axin-LRP6 binding (LRP6/Axin binding) was “stimulated Axin-LRP6 binding”. For the same substance, the “osteoblast proliferation (BrdU labeling)” value ([2]; PTH continuous infusion) was “reduced proliferation”, the “osteoblast proliferation (BrdU labeling)” value ([2]; PTH daily injection) was “stimulated” and the “mineralization in the trabecular and cortical bone matrix (von Kossa)” value ([2]; PTH intermittent injection, data not shown) was “increased”. For the same substance, the bone mineral density ([2]; continuous infusion with osmotic pump for 28 days (500 ng/h), data not shown) was “decreased”, the bone mineral density ([2]; daily injection for 28 days (100 ng/g b.w), data not shown) was “significantly increased” and the “osteoblast numbers per square millimeter tissue area (N. Ob/T.Ar)” value ([2]; primary spongiosa of femur, data not shown) was “increased”. For the same substance, the “percentage of β-catenin positive osteoblasts” value (β-catenin in osteoblasts [3]; PTH continuous infusion) was 23.54%, the “β-catenin in osteoblasts (immunostaining)” value (β-catenin in osteoblasts [3]; PTH continuous infusion, in comparison with control) was “reduced the level of β-catenin” and the “β-catenin in osteoblasts (immunostaining)” value (β-catenin in osteoblasts [3]; PTH intermittent injection) was “significantly increased β-catenin in osteoblasts”. For the same substance, the “percentage of β-catenin positive osteoblasts” value (β-catenin in osteoblasts [3]; PTH intermittent injection) was 96.03%, the “levels of β-catenin in osteocytes, osteoclasts, and bone marrow cells” value (β-catenin in osteoblasts [3]; data not shown) was “remained barely detectable” and the “effect on TGF-β-induced transcription activity (SBE-luc)” value [4] was “inhibited TGF-β-induced transcription activity”. For the same substance, the Axin protein levels (Axin) was “further downregulated Axin protein levels”, the TCF luciferase activity ([5]; 5×10^−7 M of indicated PTH ligands for 12 hours) was “significantly elevated” and the “activation of TCF4-Luc reporter” value ([5]; 10^−7M PTH (1-84), 12 hours) was “activated the TCF4-Luc reporter”.

For “TGF-β1: TGF-β ligand used as stimulus and comparator”, the “YFP fluorescence from TβRII-YFP1 and PTH1R-YFP2” value (PTH1R-TβRII interaction) was “did not show such an effect” and the “phosphorylation of Smad2” value (TGFβ/Smad signaling) was “activated”.
